# Experimental data published in patent publication US20070004680A1, “Compositions and methods for modulating gated ion channels” (PainCeptor Pharma Corporation, priority 2004, published 2007).
# Target: T1, ASIC3 (Rattus norvegicus, UniProt O35240)
# T1 construct: expressed in transfected cells
# T1 sequence (O35240 1-533): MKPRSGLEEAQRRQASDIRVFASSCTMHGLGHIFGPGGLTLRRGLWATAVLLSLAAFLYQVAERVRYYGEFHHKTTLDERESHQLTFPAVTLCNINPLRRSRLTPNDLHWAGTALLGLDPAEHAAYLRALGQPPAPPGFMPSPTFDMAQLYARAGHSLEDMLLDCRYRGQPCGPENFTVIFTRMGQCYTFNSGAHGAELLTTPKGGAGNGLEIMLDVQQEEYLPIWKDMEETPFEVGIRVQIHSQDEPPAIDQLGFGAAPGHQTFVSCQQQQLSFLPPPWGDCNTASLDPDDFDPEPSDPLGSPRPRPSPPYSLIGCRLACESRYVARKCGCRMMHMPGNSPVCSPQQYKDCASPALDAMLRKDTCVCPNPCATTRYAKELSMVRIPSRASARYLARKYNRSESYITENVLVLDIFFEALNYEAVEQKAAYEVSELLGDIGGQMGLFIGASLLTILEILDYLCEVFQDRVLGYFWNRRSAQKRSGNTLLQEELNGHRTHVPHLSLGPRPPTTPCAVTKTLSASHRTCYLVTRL
# Assay: whole cell patch clamp electrophysiology, ASIC3
# Format: cell-based
# Procedure: Another example of an in vitro assessment method consists of using mammalian heterologous expression systems, which are known to the skilled in the art, and include a variety of mammalian cell lines such as COS, HEK, e.g., HEK293and/or CHO, cells. Cell lines are transfected with gated ion channel(s) and used to perform electrophysiology as follows:
# All experiments are performed at room temperature (20-25° C.) in voltage clamp using conventional whole cell patch clamp methods (Neher, E., et al. (1978) Pfluegers Arch 375:219-228).
# The amplifier used is the EPC-9 (HEKA-electronics, Lambrect, Germany) run by a Macintosh G3 computer via an ITC-16 interface. Experimental conditions are set with the Pulse-software accompanying the amplifier. Data is low pass filtered and sampled directly to hard-disk at a rate of 3 times the cut-off frequency.
# Pipettes are pulled from borosilicate glass using a horizontal electrode puller (Zeitz-lnstrumente, Augsburg, Germany). The pipette resistances are 2-3 MOhms in the salt solutions used in these experiments. The pipette electrode is a chloridized silver wire, and the reference is a silver chloride pellet electrode (In Vivo Metric, Healdsburg, USA) fixed to the experimental chamber. The electrodes are zeroed with the open pipette in the bath just prior to sealing.
# Coverslips with the cells are transferred to a 15 μl experimental chamber mounted on the stage of an inverted microscope (IMT-2, Olympus) supplied with Nomarski optics. Cells are continuously superfused with extracellular saline at a rate of 2.5 ml/min. After giga-seal formation, the whole cell configuration is attained by suction. The cells are held at a holding voltage of −60 mV and at the start of each experiment the current is continuously measured for 45 s to ensure a stable baseline. Solutions of low pH (<7) are delivered to the chamber through a custom-made gravity-driven flowpipe, the tip of which is placed approximately 50 μm from the cell. Application is triggered when the tubing connected to the flowpipe is compressed by a valve controlled by the Pulse-software. Initially, low pH (in general, pH 6.5) is applied for 1 s every 45 s. The sample interval during application is 550 μs. After stable responses are obtained, the extracellular saline as well as the low-pH solution are switched to solutions containing the compound to be tested. The compound is present until responses of a repeatable amplitude are achieved. Current amplitudes are measured at the peak of the responses, and effect of the compounds is calculated as the amplitude at compound equilibrium divided by the amplitude of the current evoked by the pulse just before the compound was included. […]
smiles,measurement,setting,value
C=CC1CN2CCC1CC2[C@@H](OC(=O)CCC1CCCC1)c1ccnc2ccccc12 (some centres unmarked) [Compound A],"Fraction of Control, ASIC3 - pH Dependency","10 μM compound, pH 5.0",greater than .75
same,IC50,"patch clamp, pH 6.5",4 to 6 µM
